Measured values reported in patent US20250340545A1, “TETRAHYDROISOQUINOLINE COMPOUND, PREPARATION METHOD THEREFOR, PHARMACEUTICAL COMPOSITION CONTAINING SAID COMPOUND, AND USE THEREOF” (SHANGHAI INSTITUTE OF MATERIA MEDICA, CHINESE ACADEMY OF …, priority 2022, published 2025).

Experiments:
RXFP4 (HRXFP4 CHO cells) = target: T1, RXFP4 (HRXFP4 CHO cells) (Homo sapiens, UniProt Q8TDU9); assay: Ligand receptor affinity detection (Eu-R3/I5 competition on HRXFP4 CHO cells); format: binding; conditions: for Ki: 5 nM Eu-R3/I5, 1 hour room temperature, read-out: pKi ± S.E.M. (converted); for Span ± S.E.M. (% R3/I5): 5 nM Eu-R3/I5, relative to R3/I5
T1 construct: expressed in transfected cells; host or cells: CHO
Description: 2. Detection Method: Ligand Receptor Affinity Detection
Stably transfected HRXFP4 CHO cells and Eu—R3/I5 (lanthanide element europium labeled chimeric peptide R3/I5), BMG POLARstar reader (BMG Labtech), and test compound.
HRXFP4 CHO was introduced into a 96 well plate at 80000 cells per well. After 24 hours of cell culture in the incubator, discarded the supernatant, and washed once with PBS, then a binding buffer containing 1% BSA was added and incubated at room temperature for 1 hour. The cell plate was then washed once with PBS, followed by the addition of different concentrations of positive controls and test compounds, and incubated at room temperature with 5 nM Eu—R3/I5 for 1 hour.
After washing the cell plate once with PBS, an enhancement solution was added. After 45 minutes, the fluorescence value was measured using a BMG POLARstar reader (excitation wavelength of 340 nm, detection emission wavelength of 614 nm).

[1] = target: T2, human RXFP4 (hRXFP4-CHO stably transfected cell line) (Homo sapiens, UniProt Q8TDU9); assay: Measurement of intracellular cAMP concentration (in vitro RXFP4 agonist activity); format: cell-based; conditions: hRXFP4-CHO cells, 500 nM Forskolin; for Emax ± S.E.M. (% INSL5): relative to INSL5
T2 construct: expressed in transfected cells; host or cells: CHO
Description: 1. Detection Method: Measurement of Intracellular cAMP Concentration
CAMP detection kit (PerkinElmer), cell culture box (Thermo Fisher Scientific), EnVision multifunctional enzyme-linked immunosorbent assay (PerkinElmer), Forskolin (Sigma Aldrich), IBMX (Sigma Aldrich), DSMO (Sigma Aldrich), hINSL5 (Genova, human insulin-like peptide 5), hRXFP4-CHO stably transfected cell line for stable expression of human RXFP4, and test compound.
Stably transfected hRXFP4-CHO cells were seeded at 2.5×10^5 cells/mL the day before the experiment to maintain a growth density of 70%-80% in the culture dish the next day. On the day of the experiment, cells were digested with trypsin free digestion solution or 0.02% EDTA PBS solution, centrifugated, the supernatant was discarded, and cAMP experimental buffer (0.5 mM IBMX+5 mM HEPES+0.1% BSA) was prepared using 1×HBSS (calcium and magnesium free) solution. The cells were resuspended and inoculated to a 384 well plate at 4000 cells per well. The compound which was diluted with DMSO to different concentrations were added to the above 384 well plate. At the same time, 500 nM Forskolin was added and incubated at room temperature for 40 minutes. Then Eu cAMP and ULight anti cAMP working solutions were added according to the cAMP detection kit instructions. After incubation at room temperature for 40 minutes, an EnVision multifunctional enzyme-linked immunosorbent assay reader was used to read the results (excitation wavelength of 320 or 340 nm, detection emission wavelength of 665 nm).

T1 sequence (Q8TDU9 whole entry): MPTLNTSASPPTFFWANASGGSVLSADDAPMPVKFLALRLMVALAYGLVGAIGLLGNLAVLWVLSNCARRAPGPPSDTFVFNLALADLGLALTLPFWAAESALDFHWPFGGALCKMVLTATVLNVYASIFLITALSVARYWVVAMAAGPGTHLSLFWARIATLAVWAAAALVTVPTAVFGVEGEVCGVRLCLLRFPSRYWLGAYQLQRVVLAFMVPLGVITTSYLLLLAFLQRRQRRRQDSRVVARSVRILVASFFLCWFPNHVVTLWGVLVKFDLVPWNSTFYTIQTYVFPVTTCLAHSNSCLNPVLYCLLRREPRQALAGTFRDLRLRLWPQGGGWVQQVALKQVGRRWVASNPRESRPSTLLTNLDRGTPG
T2 sequence (Q8TDU9 whole entry): as above

Row | Ki (RXFP4 (HRXFP4 CHO cells)) [nM] | EC50 ([1]; 40 minutes room temperature) [nM] | Emax ± S.E.M. (% INSL5) [1] [% INSL5] | Span ± S.E.M. (% R3/I5) (RXFP4 (HRXFP4 CHO cells)) | pEC50 ± S.E.M. ([1]; 40 minutes room temperature) | SMILES
1 | > 100000 | 933 | 60.14 ± 10.64 | – | – | CCOc1cc2c(cc1OC)CCN(C(=O)N1CCOCC1)[C@@H]2CCc1c[nH]c2ccc(OC)cc12 [(R)-A1, (R)-(7-ethoxy-6-methoxy-1-(2-(5-methoxy-1H-indol-3-yl)ethyl)-3,4-dihydroisoquinolin-2(1H)-yl)(morpholino)methanone]
2 | 58.9 | – | 98.76 ± 5.71 | 81.87 ± 4.47 | 7.24 ± 0.12 | CCOc1cc2c(cc1OC)CCN(C(=O)N1CCOCC1)[C@H]2CCc1c[nH]c2ccc(OC)cc12 [(S)-A1, (S)-(7-ethoxy-6-methoxy-1-(2-(5-methoxy-1H-indol-3-yl)ethyl)-3,4-dihydroisoquinolin-2(1H)-yl)(morpholino)methanone]
3 | 148 | 87.1 | 87.64 ± 4.58 | 88.98 ± 6.07 | – | CCOc1cc2c(cc1OC)CCN(C(=O)N1CCOCC1)C2CCc1c[nH]c2ccc(OC)cc12 (stereo not drawn) [Compound A1, (7-ethoxy-6-methoxy-1-(2-(5-methoxy-1H-indol-3-yl)ethyl)-3,4-dihydroisoquinolin-2(1H)-yl) (morpholino)methanone]
4 | 209 | 204 | 101.82 ± 9.08 | 86.26 ± 6.71 | – | CCOc1cc2c(cc1OC)CCN(C(=O)N1CCC(F)CC1)C2CCc1c[nH]c2ccc(OC)cc12 (stereo not drawn) [Compound A3, (4-fluoropiperidin-1-yl) (7-ethoxy-6-methoxy-1-(2-(5-methoxy-1H-indol-3-yl)ethyl)-3,4-dihydroisoquinolin-2(1H)-yl)methanone]
5 | 631 | 57.5 | 62.00 ± 5.42 | 66.34 ± 7.29 | – | CCOc1cc2c(cc1OC)CCN(C(=O)N1CCC(F)(F)CC1)C2CCc1c[nH]c2ccc(OC)cc12 (stereo not drawn) [Compound A4, (4,4-difluoropiperidin-1-yl) (7-ethoxy-6-methoxy-1-(2-(5-methoxy-1H-indol-3-yl)ethyl)-3,4-dihydroisoquinolin-2(1H)-yl)methanone]
6 | > 100000 | 10200 | 56.43 ± 4.70 | – | – | CCOc1cc2c(cc1OC)CCN(C(=O)N1CC[S+]([O-])CC1)C2CCc1c[nH]c2ccc(OC)cc12 (stereo not drawn) [Compound A5, (7-ethoxy-6-methoxy-1-(2-(5-methoxy-1H-indol-3-yl)ethyl)-3,4-dihydroisoquinolin-2(1H)-yl)(1-oxothiomorpholinyl)methanone]
7 | > 100000 | 9330 | 51.74 ± 6.72 | – | – | CCOc1cc2c(cc1OC)CCN(C(=O)N1CCS(=O)(=O)CC1)C2CCc1c[nH]c2ccc(OC)cc12 (stereo not drawn) [Compound A6, (1,1-dioxothiomorpholino) (7-ethoxy-6-methoxy-1-(2-(5-methoxy-1H-indol-3-yl)ethyl)-3,4-dihydroisoquinolin-2(1H)-yl)methylmethanone]
8 | > 100000 | 14800 | 44.09 ± 5.25 | – | – | CCOc1cc2c(cc1OC)CCN(C(=O)c1ccccn1)C2CCc1c[nH]c2ccc(OC)cc12 (stereo not drawn) [Compound A9, (7-ethoxy-6-methoxy-1-(2-(5-methoxy-1H-indol-3-yl)ethyl)-3,4-dihydroisoquinolin-2(1H)-yl) (pyridin-2-yl)methanone]
9 | 851 | 427 | 82.33 ± 8.47 | 81.61 ± 7.65 | – | COc1ccc2[nH]cc(CCC3c4cc(OCc5ccccc5)c(OC)cc4CCN3C(=O)N3CCOCC3)c2c1 (stereo not drawn) [Compound A30, (7-(benzyloxy)-6-methoxy-1-(2-(5-methoxy-1H-indol-3-yl)ethyl)-3,4-dihydroisoquinolin-2(1H)-yl) (morpholino)methanone]
10 | 129 | 27.5 | 82.15 ± 4.95 | 92.06 ± 3.95 | – | CCOc1cc2c(cc1OC)CCN(C(=O)N1CCOCC1)C2CCc1c[nH]c2ccc(C#N)cc12 (stereo not drawn) [Compound A57, 3-(2-(7-ethoxy-6-methoxy-2-(morpholine-4-carbonyl)-1,2,3,4-tetrahydroisoquinolin-1-yl)ethyl)-1H-indole-5-carbonitrile]
11 | > 100000 | 447 | 92.58 ± 7.46 | – | – | CCOc1cc2c(cc1OC)CCN(C(=O)N1CCOCC1)C2CCc1c[nH]c2c(C)cc(OC)cc12 (stereo not drawn) [Compound A58, (7-ethoxy-6-methoxy-1-(2-(5-methoxy-7-methyl-1H-indol-3-yl)ethyl)-3,4-dihydroisoquinolin-2(1H)-yl)(morpholino) methanone]
12 | 1700 | 417 | 72.49 ± 8.04 | 75.02 ± 7.56 | – | CCOc1cc2c(cc1OC)CCN(C(=O)N1CCOCC1)C2CCc1c[nH]c2c(CC)cccc12 (stereo not drawn) [Compound A60, (7-Ethoxy-1-(2-(7-ethyl-1H-indol-3-yl)ethyl)-6-methoxy-3,4-dihydroisoquinolin-2(1H)-yl) (morpholino)methanone]
13 | > 100000 | 10000 | 58.19 ± 7.80 | – | – | CCOc1cc2c(cc1OC)CCN(C(=O)N1CCOCC1)C2CCc1c[nH]c2ncccc12 (stereo not drawn) [Compound A69, (1-(2-(1H-pyrrolo[2,3-b]pyridin-3-yl)ethyl)-7-ethoxy-6-methoxy-3,4-dihydroisoquinolin-2(1H)-yl) (morpholino)methanone]
14 | > 100000 | 3160 | 43.69 ± 7.43 | – | – | COc1cc2c(cc1OC)[C@H](CCc1c[nH]c3cc(C)ccc13)N(C(=O)C1CCOCC1)CC2 [Compound A76, (S)-(6,7-dimethoxy-1-(2-(6-methyl-1H-indol-3-yl)ethyl)-3,4-dihydroisoquinolin-2(1H)-yl) (tetrahydro-2H-pyran-4-yl)methanone]
15 | > 100000 | 437 | 25.96 ± 5.50 | – | – | COc1cc2c(cc1OC)C(CCc1c[nH]c3ccccc13)N(C(=O)c1ccncc1)CC2 (stereo not drawn) [Compound A77, (1-(2-(1H-indol-3-yl)ethyl)-6,7-dimethoxy-3,4-dihydroisoquinolin-2(1H)-yl)(pyridin-4-yl)methanone]
16 | > 100000 | – | – | – | – | CCOc1cc2c(cc1OC)CCN(C(=O)c1cscn1)[C@H]2CCc1c[nH]c2ccc(OC)cc12 [Compound A80, (S)-(7-ethoxy-6-methoxy-1-(2-(5-methoxy-1H-indol-3-yl)ethyl)-3,4-dihydroisoquinolin-2(1H)-yl) (thiazol-4-yl)methanone]
17 | > 100000 | – | – | – | – | COc1cc2c(cc1OC)C(Cc1c[nH]c3ccccc13)N(CC1CCOCC1)CC2 (stereo not drawn) [Compound A83]
